Results on eleven compounds are retold here after patent publication US11147272B2, “Pyridone compounds and agricultural and horticultural fungicides comprising the same as active ingredients” (MITSUI CHEMICALS AGRO, INC., priority 2017, dated 2021).

The subject of one assay is Magnaporthe grisea. In words: whole plant or invertebrate. It counts as in vivo. To be noted: Blast on rice; class of control value.
The next assay concerns Alternaia brassicicola. In words: Test Example C: Alternaria sooty spot on cabbage. As to conditions: Alternaria sooty spot on cabbage; class of control value. It is filed as in vivo. The text has this:
Seeds of a test plant (cabbage variety: Shikidori) were planted and cultivated until the cotyledons extended.
<Control Value> Control value=100{1−(n/3)}

A further assay deals with Puccinia recondita. In words: Test Example E: Brown rust on wheat. It counts as in vivo. To be noted: Brown rust on wheat; class of control value.
The next assay deals with Phytophthora infestans. Kind of assay: whole plant or invertebrate. As to conditions: Late blight on tomato; class of control value. It counts as in vivo.
The subject of another assay is Botrytis cinerea. Kind of assay: Test Example B: Gray mold on tomato. To be noted: Gray mold on tomato; class of control value.
A further assay deals with Plasmopara viticola. In words: Test Example G: Downy mildew on vine. As to conditions: Downy mildew on vine (Neomuscat); 250 ppm spray, 2.5 ml/pot; assessed 7 to 10 days after inoculation.
Assay [1] relates to Colletotrichum orbiculare. Kind of assay: Test Example H: Anthracnose on cucumber. As to conditions: Anthracnose on cucumber (Sagami Hanjiro); 250 ppm spray, 2.5 ml/pot; assessed 6 to 10 days after inoculation.
Description: Seeds of a test plant (cucumber variety: Sagami Hanjiro) were planted and cultivated until the first leaf appeared. In the test, the inventive compounds were dissolved into dimethyl sulfoxide-methanol mixture solution (volume ratio: 9/1), and the resultant solutions were diluted with well water to a concentration of 250 ppm to obtain the drug solutions. The drug solutions were sprayed to the test plant (2.5 ml/pot). After the drug solutions dried, a conidial suspension (2-4×10^5 conidia/ml) of Colletotrichum orbiculare was inoculated to the plant by spraying. After the inoculation, the plant was kept in a mist chamber at room temperature of 20 to 23° C. for about 24 hours to promote the onset of disease. The degrees of disease development were investigated 6 to 10 days after the inoculation, and the effectiveness of the drug solutions was evaluated.
In Test Examples described above, the degrees of disease development were evaluated in increments of 0.05 from 0 (as no incidence of disease) to 3 (as the degree of disease development in an untreated plant group). Further, control values were calculated using the following equation based on the degree of disease development.
n=Degree of disease development in each treated group
In the table, H: more than 50% control value, L: 50% or less control value, and nt: not tested.
Assay [2] has as its system Blumeria graminis f. sp. hordei. Kind of assay: Test Example D: Powdery mildew on barley. To be noted: Powdery mildew on barley; class of control value.

Regarding `CCn1c(-c2c(F)cc(F)cc2F)c(C(O)C(C)C)cc(Cl)c1=O` (stereo not shown) [compound 64], the “Test A control value class” value with Magnaporthe grisea is listed as “H (more than 50% control value)”. Also, in the assay with Alternaia brassicicola, the “Test C control value class” value is “H (more than 50% control value)”. The “Test E control value class” value in the assay on Puccinia recondita was “H (more than 50% control value)”. Also, the “Test F control value class” value with Phytophthora infestans was “L (50% or less control value)”. Moreover, the “Test B control value class” value in the assay with Botrytis cinerea was “H (more than 50% control value)”. Moreover, the “Test G control value class” value in the assay on Plasmopara viticola is reported as “H (more than 50% control value)”. For the same compound, the “Test H control value class” value in assay [1] is “H (more than 50% control value)”. In addition, the “Test D control value class” value in assay [2] is “H (more than 50% control value)”.
For the compound `CCn1c(-c2c(F)cc(F)cc2F)c(C(OC)C(C)C)cc(Cl)c1=O` (stereo not shown) [compound 65], the “Test A control value class” value in the assay with Magnaporthe grisea was “H (more than 50% control value)”. The “Test C control value class” value in the assay on Alternaia brassicicola is on record as “H (more than 50% control value)”. For the same compound, in the assay on Puccinia recondita, the “Test E control value class” value is listed as “H (more than 50% control value)”. Besides, the “Test F control value class” value with Phytophthora infestans is reported as “L (50% or less control value)”. For the same compound, the “Test B control value class” value in the assay on Botrytis cinerea is on record as “H (more than 50% control value)”. For the same compound, the “Test G control value class” value in the assay on Plasmopara viticola is listed as “L (50% or less control value)”. Moreover, the “Test H control value class” value in assay [1] was “H (more than 50% control value)”. The “Test D control value class” value in assay [2] is on record as “H (more than 50% control value)”.
`CCn1c(-c2c(F)cc(F)cc2F)c(C(=O)C(C)C)cc(Cl)c1=O` [compound 66]: in the assay with Magnaporthe grisea, the “Test A control value class” value is given as “H (more than 50% control value)”. Moreover, in the assay on Alternaia brassicicola, the “Test C control value class” value is given as “H (more than 50% control value)”. The “Test E control value class” value in the assay on Puccinia recondita is reported as “H (more than 50% control value)”. Also, the “Test F control value class” value with Phytophthora infestans is given as “L (50% or less control value)”. Moreover, the “Test B control value class” value with Botrytis cinerea is “H (more than 50% control value)”. Moreover, the “Test G control value class” value with Plasmopara viticola was “L (50% or less control value)”. The “Test H control value class” value in assay [1] is reported as “H (more than 50% control value)”. Further, in assay [2], the “Test D control value class” value is “H (more than 50% control value)”.
For `CCn1c(-c2c(F)cc(F)cc2F)c(C(C)(C)C)ccc1=O` [compound 67], the “Test A control value class” value in the assay on Magnaporthe grisea is reported as “L (50% or less control value)”. Moreover, the “Test C control value class” value in the assay with Alternaia brassicicola is on record as “H (more than 50% control value)”. Further, in the assay on Puccinia recondita, the “Test E control value class” value was “H (more than 50% control value)”. Besides, in the assay with Phytophthora infestans, the “Test F control value class” value was “L (50% or less control value)”. In addition, in the assay on Botrytis cinerea, the “Test B control value class” value is “H (more than 50% control value)”. In the assay with Plasmopara viticola, the “Test G control value class” value was “L (50% or less control value)”. The “Test H control value class” value in assay [1] is “H (more than 50% control value)”. Further, the “Test D control value class” value in assay [2] is given as “H (more than 50% control value)”.
`Cn1c(-c2c(F)cc(F)cc2F)c(C(C)(C)C)ccc1=O` [compound 68]: the “Test A control value class” value in the assay with Magnaporthe grisea is listed as “L (50% or less control value)”. For the same compound, the “Test C control value class” value with Alternaia brassicicola is “H (more than 50% control value)”. The “Test E control value class” value in the assay with Puccinia recondita is reported as “H (more than 50% control value)”. Moreover, the “Test F control value class” value with Phytophthora infestans is listed as “L (50% or less control value)”. The “Test B control value class” value with Botrytis cinerea was “L (50% or less control value)”. Moreover, the “Test G control value class” value with Plasmopara viticola is given as “L (50% or less control value)”. Also, the “Test H control value class” value in assay [1] is “H (more than 50% control value)”. In addition, in assay [2], the “Test D control value class” value is recorded as “L (50% or less control value)”.
Regarding `CCn1c(-c2c(F)cc(F)cc2F)c(C(C)(C)C)cc(Cl)c1=O` [compound 69], the “Test A control value class” value in the assay with Magnaporthe grisea is “H (more than 50% control value)”. For the same compound, the “Test C control value class” value in the assay on Alternaia brassicicola is “H (more than 50% control value)”. Moreover, the “Test E control value class” value in the assay with Puccinia recondita is “H (more than 50% control value)”. For the same compound, the “Test F control value class” value with Phytophthora infestans was “L (50% or less control value)”. In addition, the “Test B control value class” value in the assay with Botrytis cinerea is recorded as “H (more than 50% control value)”. The “Test G control value class” value with Plasmopara viticola is given as “L (50% or less control value)”. Also, the “Test H control value class” value in assay [1] is recorded as “L (50% or less control value)”. The “Test D control value class” value in assay [2] is “L (50% or less control value)”.
As for `CCn1c(-c2c(F)cc(F)cc2F)c(C(C)(C)C)cc(Br)c1=O` [compound 70], in the assay with Magnaporthe grisea, the “Test A control value class” value is listed as “H (more than 50% control value)”. In addition, in the assay with Alternaia brassicicola, the “Test C control value class” value is “H (more than 50% control value)”. For the same compound, the “Test E control value class” value in the assay with Puccinia recondita is “H (more than 50% control value)”. For the same compound, the “Test F control value class” value in the assay on Phytophthora infestans was “L (50% or less control value)”. Further, the “Test B control value class” value in the assay on Botrytis cinerea was “H (more than 50% control value)”. Further, the “Test G control value class” value in the assay with Plasmopara viticola is recorded as “L (50% or less control value)”. For the same compound, the “Test H control value class” value in assay [1] is reported as “H (more than 50% control value)”. Besides, the “Test D control value class” value in assay [2] is reported as “H (more than 50% control value)”.
As to `CCn1c(-c2c(F)cc(OC)cc2F)c(C(OC)C(C)C)cc(Cl)c1=O` (stereo not shown) [compound 71], the “Test A control value class” value in the assay on Magnaporthe grisea is given as “H (more than 50% control value)”. Also, in the assay with Alternaia brassicicola, the “Test C control value class” value is “H (more than 50% control value)”. Moreover, the “Test E control value class” value with Puccinia recondita is recorded as “H (more than 50% control value)”. Further, the “Test F control value class” value in the assay with Phytophthora infestans is reported as “L (50% or less control value)”. Moreover, in the assay on Botrytis cinerea, the “Test B control value class” value is “H (more than 50% control value)”. Also, the “Test G control value class” value in the assay with Plasmopara viticola is given as “L (50% or less control value)”. Besides, the “Test H control value class” value in assay [1] was “H (more than 50% control value)”. Besides, the “Test D control value class” value in assay [2] is listed as “H (more than 50% control value)”.
In the case of `CCOc1cc(F)c(-c2c(C(OC)C(C)C)cc(Cl)c(=O)n2CC)c(F)c1` (stereo not shown) [compound 72], the “Test A control value class” value with Magnaporthe grisea is on record as “H (more than 50% control value)”. The “Test C control value class” value with Alternaia brassicicola is reported as “H (more than 50% control value)”. The “Test E control value class” value in the assay on Puccinia recondita is recorded as “H (more than 50% control value)”. For the same compound, in the assay with Phytophthora infestans, the “Test F control value class” value was “L (50% or less control value)”. Further, the “Test B control value class” value with Botrytis cinerea is “H (more than 50% control value)”. The “Test G control value class” value in the assay on Plasmopara viticola is “H (more than 50% control value)”. For the same compound, in assay [1], the “Test H control value class” value is listed as “H (more than 50% control value)”. Further, in assay [2], the “Test D control value class” value is “H (more than 50% control value)”.
On to `CCn1c(-c2c(F)cc(OC)cc2F)c(C(=O)C(C)C)cc(Cl)c1=O` [compound 73], for which, in the assay with Magnaporthe grisea, the “Test A control value class” value is on record as “H (more than 50% control value)”. Moreover, the “Test C control value class” value in the assay with Alternaia brassicicola was “H (more than 50% control value)”. Besides, the “Test E control value class” value with Puccinia recondita is reported as “H (more than 50% control value)”. In the assay with Phytophthora infestans, the “Test F control value class” value is “L (50% or less control value)”. Further, in the assay on Botrytis cinerea, the “Test B control value class” value is “H (more than 50% control value)”. Moreover, the “Test G control value class” value in the assay on Plasmopara viticola is listed as “H (more than 50% control value)”. In assay [1], the “Test H control value class” value is “H (more than 50% control value)”. Also, the “Test D control value class” value in assay [2] is “H (more than 50% control value)”.
For the compound `CCn1c(-c2c(F)cc(OC)cc2F)c(C(C)(C)C)cc(Cl)c1=O` [compound 74], the “Test A control value class” value with Magnaporthe grisea was “H (more than 50% control value)”. Besides, the “Test C control value class” value in the assay with Alternaia brassicicola is reported as “H (more than 50% control value)”. Also, the “Test E control value class” value in the assay on Puccinia recondita is given as “H (more than 50% control value)”. Moreover, the “Test F control value class” value in the assay on Phytophthora infestans is recorded as “L (50% or less control value)”. Moreover, the “Test B control value class” value in the assay with Botrytis cinerea is given as “H (more than 50% control value)”. Moreover, the “Test G control value class” value in the assay with Plasmopara viticola is “H (more than 50% control value)”. For the same compound, in assay [1], the “Test H control value class” value is reported as “H (more than 50% control value)”. Further, the “Test D control value class” value in assay [2] is “L (50% or less control value)”.
